Results published in patent US9012395B2, “Treatment of extracellular matrix to reduce inflammation” (The Cleveland Clinic Foundation, priority 2011, dated 2015).

Experiment: Solubility of HA

Substance: hyaluronan [HA]
- Concentration of HA solutions that can be prepared: ≥ 20000 µg/mL
